Test results taken from patent US4684664A, “Derivatives of β-(4-isocyano-1,2,3,4-diepoxycyclopentyl) acrylic acid” (Kureha Kagaku Kogyo Kabushiki Kaisha, priority 1984, dated 1987).
≈ marks a conversion by molar mass, not a printed value.

How the values were obtained:
Assay type in all cases: cell-based
[1] = tested on: Proteus vulgaris OX-19; assay: Antibacterial activity, agar-dilution MIC, organism No. 20; settings: Proteus vulgaris, OX19; Organism No. 20, bouillon-agar; read-out: Minimum Inhibitory Concentration
Method in brief: (§1)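 Agar dilution, bouillon-agar plates; MIC reported in μg/ml of medium.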

[2] = tested on: Staphylococcus aureus MS 353; assay: Antibacterial activity, agar-dilution MIC, organism No. 3; settings: Staphylococcus aureus, MS353; Organism No. 3, bouillon-agar; read-out: Minimum Inhibitory Concentration
Method in brief: as §1

[3] = tested on: Staphylococcus aureus Terajima; assay: Antibacterial activity, agar-dilution MIC, organism No. 2; settings: Staphylococcus aureus; Organism No. 2, bouillon-agar; read-out: Minimum Inhibitory Concentration
Method in brief: as §1

[4] = tested on: Staphylococcus aureus FDA 209PJc-1; assay: Antibacterial activity, agar-dilution MIC, organism No. 1; settings: Staphylococcus aureus, FDA209PJC1; Organism No. 1, bouillon-agar; read-out: Minimum Inhibitory Concentration
Method in brief: as §1

[5] = tested on: Pseudomonas aeruginosa NCTC 10490; assay: Antibacterial activity, agar-dilution MIC, organism No. 16; settings: Pseudomonas aeruginosa, NCTC10490; Organism No. 16, bouillon-agar; read-out: Minimum Inhibitory Concentration
Method in brief: as §1

[6] = tested on: Streptococcus pyogenes IFO 3340; assay: Antibacterial activity, agar-dilution MIC, organism No. 26; settings: Streptococcus pyogenes, IFO3340; Organism No. 26, bouillon-agar; read-out: Minimum Inhibitory Concentration
Method in brief: as §1

[7] = tested on: Salmonella typhimurium IID 971; assay: Antibacterial activity, agar-dilution MIC, organism No. 8; settings: Salmonella enterica; Organism No. 8, bouillon-agar; read-out: Minimum Inhibitory Concentration
Method in brief: as §1

[8] = tested on: Enterobacter aerogenes ATCC 13048; assay: Antibacterial activity, agar-dilution MIC, organism No. 23; settings: Klebsiella aerogenes, ATCC13048; Organism No. 23, bouillon-agar; read-out: Minimum Inhibitory Concentration
Method in brief: as §1

[9] = tested on: Salmonella paratyphi-A 1015; assay: Antibacterial activity, agar-dilution MIC, organism No. 10; settings: Salmonella enterica, PARATYPHI, read-out: Minimum Inhibitory Concentration
Method in brief: as §1

[10] = tested on: Enterobacter cloacae 963; assay: Antibacterial activity, agar-dilution MIC, organism No. 24; settings: Enterobacter cloacae, 963; Organism No. 24, bouillon-agar; read-out: Minimum Inhibitory Concentration
Method in brief: as §1

[11] = tested on: Candida albicans IAM 4905; assay: Antifungal activity, agar-dilution MIC, organism No. 29; settings: Candida albicans, IAM4905; Organism No. 29, bouillon-agar; read-out: Minimum Inhibitory Concentration
Method in brief: as §1

[12] = tested on: Proteus mirabilis IFO 3849; assay: Antibacterial activity, agar-dilution MIC, organism No. 19; settings: Proteus mirabilis, IFO3849; Organism No. 19, bouillon-agar; read-out: Minimum Inhibitory Concentration
Method in brief: as §1

[13] = tested on: Aspergillus niger IFO 6342; assay: Antifungal activity, agar-dilution MIC, organism No. 30; settings: Aspergillus niger, IFO6342; Organism No. 30, bouillon-agar; read-out: Minimum Inhibitory Concentration
Method in brief: as §1

[14] = tested on: Salmonella shottmuelleri 8006; assay: Antibacterial activity, agar-dilution MIC, organism No. 11; settings: Salmonella, 8006; Organism No. 11, bouillon-agar; read-out: Minimum Inhibitory Concentration
Method in brief: as §1

[15] = tested on: Salmonella typhi 901; assay: Antibacterial activity, agar-dilution MIC, organism No. 9; settings: Salmonella enterica, TYPHI, read-out: Minimum Inhibitory Concentration
Method in brief: as §1

[16] = tested on: Escherichia coli NIHJ-JC-2; assay: Antibacterial activity, agar-dilution MIC, organism No. 5; settings: Escherichia coli, NIHJJC2; Organism No. 5, bouillon-agar; read-out: Minimum Inhibitory Concentration
Method in brief: as §1

[17] = tested on: Micrococcus luteus ATCC 9341; assay: Antibacterial activity, agar-dilution MIC, organism No. 25; settings: Micrococcus luteus, ATCC9341; Organism No. 25, bouillon-agar; read-out: Minimum Inhibitory Concentration
Method in brief: as §1

[18] = tested on: Proteus morganii IFO 3848; assay: Antibacterial activity, agar-dilution MIC, organism No. 18; settings: Morganella morganii, IFO3848; Organism No. 18, bouillon-agar; read-out: Minimum Inhibitory Concentration
Method in brief: as §1

[19] = tested on: Pseudomonas aeruginosa PAO 1; assay: Antibacterial activity, agar-dilution MIC, organism No. 17; settings: Pseudomonas aeruginosa, PAO1; Organism No. 17, bouillon-agar; read-out: Minimum Inhibitory Concentration
Method in brief: as §1

[20] = tested on: Salmonella enteritidis G 14; assay: Antibacterial activity, agar-dilution MIC, organism No. 12; settings: Salmonella enterica, ENTERITIDIS; Organism No. 12, bouillon-agar; read-out: Minimum Inhibitory Concentration
Method in brief: as §1

[21] = tested on: Bacillus subtilis ATCC 6633; assay: Antibacterial activity, agar-dilution MIC, organism No. 14; settings: Bacillus subtilis, ATCC6633; Organism No. 14, bouillon-agar; read-out: Minimum Inhibitory Concentration
Method in brief: as §1

[22] = tested on: Streptococcus faecium IFO 3826; assay: Antibacterial activity, agar-dilution MIC, organism No. 27; settings: Enterococcus faecium, IFO3826; Organism No. 27, bouillon-agar; read-out: Minimum Inhibitory Concentration
Method in brief: as §1

[23] = tested on: Klebsiella pneumoniae PCI-602; assay: Antibacterial activity, agar-dilution MIC, organism No. 7; settings: Klebsiella pneumoniae, PCI602; Organism No. 7, bouillon-agar; read-out: Minimum Inhibitory Concentration
Method in brief: as §1

[24] = tested on: Proteus rettgeri IFO 3850; assay: Antibacterial activity, agar-dilution MIC, organism No. 22; settings: Providencia rettgeri, IFO3850; Organism No. 22, bouillon-agar; read-out: Minimum Inhibitory Concentration
Method in brief: as §1

[25] = tested on: Mycoplasma pneumoniae IID817; assay: Antimycoplasmal activity, MIC by phenol red colour change, organism No. 28; settings: Mycoplasma, IID817; Organism No. 28, PPLO broth + 1% glucose, 37° C.; read-out: Minimum Inhibitory Concentration (MIC)
Procedure: Mycoplasma pneumoniae IID817 was used as the test microorganism in a culture medium prepared by adding 1% of glucose to "PPLO broth (manufactured by Difco Co.) liquid culture medium" at 37° C. with phenol red as an indicator, thereby culturing the test microorganism.

[26] = tested on: Proteus vulgaris HX-19; assay: Antibacterial activity, agar-dilution MIC, organism No. 21; settings: Proteus vulgaris, HX19; Organism No. 21, bouillon-agar; read-out: Minimum Inhibitory Concentration
Method in brief: as §1

[27] = tested on: Streptococcus pyogenes Cook; assay: Antibacterial activity, agar-dilution MIC, organism No. 4; settings: Streptococcus pyogenes; Organism No. 4, bouillon-agar; read-out: Minimum Inhibitory Concentration
Method in brief: as §1

[28] = tested on: Serratia marcescens IAM 1184; assay: Antibacterial activity, agar-dilution MIC, organism No. 13; settings: Serratia marcescens, IAM1184; Organism No. 13, bouillon-agar; read-out: Minimum Inhibitory Concentration
Method in brief: as §1

[29] = tested on: Escherichia coli K12 C600 IAM 1264; assay: Antibacterial activity, agar-dilution MIC, organism No. 6; settings: Escherichia coli, IAM1264; Organism No. 6, bouillon-agar; read-out: Minimum Inhibitory Concentration
Method in brief: as §1

[30] = tested on: Pseudomonas aeruginosa IFO 3445; assay: Antibacterial activity, agar-dilution MIC, organism No. 15; settings: Pseudomonas aeruginosa, IFO3445; Organism No. 15, bouillon-agar; read-out: Minimum Inhibitory Concentration
Method in brief: as §1

Structure (SMILES)	MIC [1] [µg/mL]	MIC [2] [µg/mL]	MIC [3] [µg/mL]	MIC [4] [µg/mL]	MIC [5] [µg/mL]	MIC [6] [µg/mL]	MIC [7] [µg/mL]	MIC [8] [µg/mL]	MIC [9] [µg/mL]	MIC [10] [µg/mL]	MIC [11] [µg/mL]	MIC [12] [µg/mL]	MIC [13] [µg/mL]	MIC [14] [µg/mL]	MIC [15] [µg/mL]	MIC [16] [µg/mL]	MIC [17] [µg/mL]	MIC [18] [µg/mL]	MIC [19] [µg/mL]	MIC [20] [µg/mL]	further results
[C-]#[N+]C12CC3(/C=C/C(=O)Nc4ccc(C(=O)OC)cc4)OC3C1O2 (stereo not drawn) [compound 49]	< 0.05	< 0.05	< 0.05	< 0.05	> 200	< 0.05	0.39 (≈ 1.2 µM)	> 200	< 0.05	25 (≈ 76.6 µM)	1.56 (≈ 4.78 µM)	> 200	3.13 (≈ 9.59 µM)	< 0.05	0.1 (≈ 0.306 µM)	50 (≈ 153 µM)	< 0.05	12.5 (≈ 38.3 µM)	> 200	0.39 (≈ 1.2 µM)	MIC [21]: 0.78 µg/mL (≈ 2.39 µM); MIC [22]: 25 µg/mL (≈ 76.6 µM); MIC [23]: < 0.05 µg/mL; MIC [24]: < 0.05 µg/mL; MIC [25]: < 0.2 µg/mL; MIC [26]: < 0.05 µg/mL; MIC [27]: 12.5 µg/mL (≈ 38.3 µM); MIC [28]: 12.5 µg/mL (≈ 38.3 µM); MIC [29]: 50 µg/mL (≈ 153 µM); MIC [30]: > 200 µg/mL
[C-]#[N+]C12CC3(/C=C/C(=O)Nc4cccc(C(=O)OC)c4)OC3C1O2 (stereo not drawn) [compound 50]	1.56 (≈ 4.78 µM)	0.39 (≈ 1.2 µM)	1.56 (≈ 4.78 µM)	0.2 (≈ 0.613 µM)	> 200	1.56 (≈ 4.78 µM)	50 (≈ 153 µM)	> 200	6.25 (≈ 19.2 µM)	200 (≈ 613 µM)	0.79 (≈ 2.42 µM)	> 200	1.56 (≈ 4.78 µM)	1.56 (≈ 4.78 µM)	25 (≈ 76.6 µM)	> 200	< 0.05	1.56 (≈ 4.78 µM)	> 200	6.25 (≈ 19.2 µM)	MIC [21]: 6.25 µg/mL (≈ 19.2 µM); MIC [22]: 12.5 µg/mL (≈ 38.3 µM); MIC [23]: 0.39 µg/mL (≈ 1.2 µM); MIC [24]: 6.25 µg/mL (≈ 19.2 µM); MIC [25]: < 0.2 µg/mL; MIC [26]: 0.1 µg/mL (≈ 0.306 µM); MIC [27]: 200 µg/mL (≈ 613 µM); MIC [28]: > 200 µg/mL; MIC [29]: > 200 µg/mL; MIC [30]: > 200 µg/mL
